Measured values published in patent US11236121B2, “Crystalline 19-nor C3,3-disubstituted C21-N-pyrazolyl steroid” (priority 2016, dated 2022).
Values after ≈ are worked out from the molar mass of the structure shown. “Also recorded” adds a separate entry of the source. Where two headings read alike, the source gives them in different places.

How the values were obtained:
[1] = Hygroscopicity by dynamic vapor sorption (DVS); type: physicochemical; settings: for water uptake at 80% RH / water uptake at 95% RH: DVS isotherm; for water uptake at 80% RH / water uptake at 95% RH / form change before and after DVS (XRPD) / hygroscopicity: 25° C.; for form change before and after DVS (XRPD) / hygroscopicity / water uptake at RH less than or equal to 95%: DVS; for water uptake at RH less than or equal to 95%: RH less than or equal to 95% (description section)
Method: Dynamic vapor sorption (DVS) was measured via an SMS (Surface Measurement Systems) DVS Intrinsic system. The relative humidity at 25° C. was calibrated against the deliquescence point of LiCl, Mg(NO3)2, and KCl.
The hygroscopicity of Form A, Form C, and Form K were investigated at 25° C. using DVS. The XRPD patterns of each sample before and after DVS were compared in order to investigate any potential form change.

[2] = Equilibrium solubility of Forms A, C and P in ethyl acetate; type: physicochemical
Method: (§1) Solubility profiles of Forms A, C and P across a range of temperature can give an indication of the relative stability of different forms within different temperature ranges. Sufficient equilibrium solubility data were collected experimentally covering 5-70° C.

[3] = Crystal form and relative stability of slurried solids in EtOAc, checked by XRPD; type: physicochemical; settings: for Crystal Form Checked by XRPD: ethyl acetate
Method: During solubility measurements, an XRPD pattern was detected in (a) slurries of Form A in EtOAc at 5° C. (after 1 h) and 20° C. (after 2 days), (b) slurries of Form C in EtOAc at 5° C. (after 1 h) and 20° C. (after 7 days). There was no direct match of this solid form's XRPD pattern to other crystal forms of Compound 1.
as §1

[4] = type: physicochemical
Method: In each experiment, approximately 10 to 20 mg of Form A was suspended in 0.5 mL of a solvent or mixture of solvents. After stirring at RT or 50° C. for 48 hours, the solids were isolated by centrifugation for analysis (wet sample). If the suspensions turned into clear solution, the clear solutions were kept at ambient conditions for slow evaporation.
In one embodiment, the inter-conversion between Forms A, C and K can be studied in a series of slurry conversion experiments conducted in ethyl acetate, n-butanol, and methyl tert-butyl ether (MBTE) at both room temperature (RT) and 50° C. Compound 1 can display moderate solubility, and may yield solvated forms during these screening experiments. The transition temperature between Forms A and C was estimated to be ˜17° C., and the transition temperature between Forms K and C was above 100° C.

[5] = type: physicochemical; settings: for stability of the crystalline form in words: XRPD, ambient conditions
Method: A PANalytical Empyrean X-ray powder diffractometer with a 12-well auto-sampler stage was used for analysis throughout this study. Resolution calibration of the instrument was performed every 6 months, and sensitivity measurements were performed after the sample stage was changed. A silicon (Si) pressed powder sample was used as the reference standard.
The wet cake of Form P (˜5 min air) was dried in two ways: (a) under air at room temperature overnight, and (b) under vacuum at 40° C. for 3 hours. Both dried cakes were analyzed by XRPD, 1H-NMR, and TGA.

C[C@@]1(O)CC[C@H]2[C@H](CC[C@@H]3[C@@H]2CC[C@]2(C)[C@@H](C(=O)Cn4cc(C#N)cn4)CC[C@@H]32)C1 [Form A]
water uptake at 80% RH [1]: 0.06 % by weight | water uptake at 95% RH [1]: less than 0.12 % by weight | form change before and after DVS (XRPD) [1]: no form change | hygroscopicity [1]: non-hygroscopic | water uptake at RH less than or equal to 95% [1]: less than 0.30 weight percent | solubility at 2 day ([2]; 20 °C, organic solvent or mixture, thermodynamic from solid, equilibration 2 day): 12.4 mg/mL (≈ 30.3 mM) | solubility at 4 h ([2]; 30 °C, organic solvent or mixture, thermodynamic from solid, equilibration 4 h): 15.5 mg/mL (≈ 37.8 mM) | solubility at 7 h ([2]; 40 °C, organic solvent or mixture, thermodynamic from solid, equilibration 7 h): 18.8 mg/mL (≈ 45.9 mM) | solubility at 20 h ([2]; 50 °C, organic solvent or mixture, thermodynamic from solid, equilibration 20 h): 25 mg/mL (≈ 61 mM) | solubility at 4 h ([2]; 60 °C, organic solvent or mixture, thermodynamic from solid, equilibration 4 h): 31.7 mg/mL (≈ 77.4 mM) | solid form detected by XRPD in slurry in EtOAc ([3]; 5° C., after 1 h): Form P | solid form detected by XRPD in slurry in EtOAc ([3]; 20° C., after 2 days): Form P | Crystal Form Checked by XRPD ([3]; 20 ° C., 2 day): No Form Change | Crystal Form Checked by XRPD ([3]; 30 ° C., 4 h): No Form Change | Crystal Form Checked by XRPD ([3]; 40 ° C., 7 h): No Form Change | Crystal Form Checked by XRPD ([3]; 50 ° C., 20 h): No Form Change | Crystal Form Checked by XRPD ([3]; 60 ° C., 4 h): No Form Change

C[C@@]1(O)CC[C@H]2[C@H](CC[C@@H]3[C@@H]2CC[C@]2(C)[C@@H](C(=O)Cn4cc(C#N)cn4)CC[C@@H]32)C1 [Form C]
water uptake at 80% RH [1]: 0.12 % by weight | water uptake at 95% RH [1]: less than 0.30 % by weight | form change before and after DVS (XRPD) [1]: no form change | hygroscopicity [1]: non-hygroscopic | water uptake at RH less than or equal to 95% [1]: less than 0.32 weight percent | Solubility ([2]; 20 ° C., equilibration 2 day): 11.8 mg/mL (≈ 28.8 mM) | Solubility ([2]; 30 ° C., equilibration 4 h): 14.9 mg/mL (≈ 36.4 mM) | Solubility ([2]; 40 ° C., equilibration 7 h): 17.9 mg/mL (≈ 43.7 mM) | Solubility ([2]; 50 ° C., equilibration 20 h): 23.7 mg/mL (≈ 57.9 mM) | Solubility ([2]; 60 ° C., equilibration 4 h): 29.8 mg/mL (≈ 72.8 mM) | solid form detected by XRPD in slurry in EtOAc ([3]; 5° C., after 1 h): Form P | solid form detected by XRPD in slurry in EtOAc ([3]; 20° C., after 7 days): Form P | relative stability of forms ([3]; EtOAc, across the entire processing temperature range (5-70° C. data)): more stable than Form A | Crystal Form Checked by XRPD ([3]; 20 ° C., 2 day): No Form Change | Crystal Form Checked by XRPD ([3]; 30 ° C., 4 h): No Form Change | Crystal Form Checked by XRPD ([3]; 40 ° C., 7 h): No Form Change | Crystal Form Checked by XRPD ([3]; 50 ° C., 20 h): No Form Change | Crystal Form Checked by XRPD ([3]; 60 ° C., 4 h): No Form Change | transition temperature between Forms A and C ([4]; estimated from slurry conversion experiments): ~17 °C | transition temperature between Forms K and C ([4]; from slurry conversion experiments): above 100 °C | thermodynamic stability compared to Form A and Form K ([4]; slurry conversion in ethyl acetate, n-butanol or methyl tert-butyl ether, room temperature to 50° C.): more thermodynamically stable

C[C@@]1(O)CC[C@H]2[C@H](CC[C@@H]3[C@@H]2CC[C@]2(C)[C@@H](C(=O)Cn4cc(C#N)cn4)CC[C@@H]32)C1 [Form E]
form after drying (XRPD) ([5]; drying at ambient (room temperature) conditions): transformed to a mixture of Forms A and C that exhibited low crystallinity

C[C@@]1(O)CC[C@H]2[C@H](CC[C@@H]3[C@@H]2CC[C@]2(C)[C@@H](C(=O)Cn4cc(C#N)cn4)CC[C@@H]32)C1 [Form H]
stability of the crystalline form in words [5]: metastable

C[C@@]1(O)CC[C@H]2[C@H](CC[C@@H]3[C@@H]2CC[C@]2(C)[C@@H](C(=O)Cn4cc(C#N)cn4)CC[C@@H]32)C1 [Form I]
stability of the crystalline form in words [5]: metastable

C[C@@]1(O)CC[C@H]2[C@H](CC[C@@H]3[C@@H]2CC[C@]2(C)[C@@H](C(=O)Cn4cc(C#N)cn4)CC[C@@H]32)C1 [Form J]
stability of the crystalline form in words [5]: metastable | form after drying (XRPD) ([5]; drying at ambient conditions for 3 days): transforms to Form A

C[C@@]1(O)CC[C@H]2[C@H](CC[C@@H]3[C@@H]2CC[C@]2(C)[C@@H](C(=O)Cn4cc(C#N)cn4)CC[C@@H]32)C1 [Form K]
water uptake at 80% RH [1]: 0.18 % by weight | water uptake at 95% RH [1]: less than 0.35 % by weight | form change before and after DVS (XRPD) [1]: no form change | hygroscopicity [1]: non-hygroscopic | water uptake at RH less than or equal to 95% [1]: less than 0.35 weight percent

C[C@@]1(O)CC[C@H]2[C@H](CC[C@@H]3[C@@H]2CC[C@]2(C)[C@@H](C(=O)Cn4cc(C#N)cn4)CC[C@@H]32)C1 [Form L]
stability of the crystalline form in words [5]: metastable

C[C@@]1(O)CC[C@H]2[C@H](CC[C@@H]3[C@@H]2CC[C@]2(C)[C@@H](C(=O)Cn4cc(C#N)cn4)CC[C@@H]32)C1 [Form N]
form after storage (XRPD) ([5]; overnight, under ambient conditions): transforms to Form A

C[C@@]1(O)CC[C@H]2[C@H](CC[C@@H]3[C@@H]2CC[C@]2(C)[C@@H](C(=O)Cn4cc(C#N)cn4)CC[C@@H]32)C1 [Form P]
solubility at 20 h ([2]; 5 °C, organic solvent or mixture, thermodynamic from solid, equilibration 20 h): 5.4 mg/mL (≈ 13.2 mM) | solubility at 3 day ([2]; 10 °C, organic solvent or mixture, thermodynamic from solid, equilibration 3 day): 6.6 mg/mL (≈ 16.1 mM) | solubility at 2 day ([2]; 15 °C, organic solvent or mixture, thermodynamic from solid, equilibration 2 day): 8 mg/mL (≈ 19.5 mM) | Solubility ([2]; 20 ° C., equilibration 2 day): 11.4 mg/mL (≈ 27.8 mM) | solubility at 20 h ([2]; 25 °C, organic solvent or mixture, thermodynamic from solid, equilibration 20 h): 12.6 mg/mL (≈ 30.8 mM) | solubility at 20 h ([2]; 30 °C, organic solvent or mixture, thermodynamic from solid, equilibration 20 h): 13.5 mg/mL (≈ 33 mM) | relative stability of forms ([3]; EtOAc, ≤20° C.): more stable than both Forms A and C; also recorded: more stable than Form C | stability in EtOAc ([3]; EtOAc, ≥35° C.): converts to Form A | Crystal Form Checked by XRPD ([3]; 5 ° C., 20 h): Form P | Crystal Form Checked by XRPD ([3]; 10 ° C., 3 day): Form P | Crystal Form Checked by XRPD ([3]; 15 ° C., 2 day): Form P | Crystal Form Checked by XRPD ([3]; 20 ° C., 2 day): No Form Change | Crystal Form Checked by XRPD ([3]; 25 ° C., 20 h): Form P | Crystal Form Checked by XRPD ([3]; 30 ° C., 20 h): Form P | Crystal Form Checked by XRPD ([3]; 40 ° C., 24 h): Form P to Form | XRPD pattern of dried cake ([5]; wet cake dried under air at room temperature overnight): conforming to Form P | XRPD pattern of dried cake ([5]; wet cake dried under vacuum at 40° C. for 3 hours): conforming to Form A

C[C@@]1(O)CC[C@H]2[C@H](CC[C@@H]3[C@@H]2CC[C@]2(C)[C@@H](C(=O)Cn4cc(C#N)cn4)CC[C@@H]32)C1 [Forms A and K (with Form C seeds)]
Final Form after slurry conversion ([4]; Ethyl acetate, RT): Form C

C[C@@]1(O)CC[C@H]2[C@H](CC[C@@H]3[C@@H]2CC[C@]2(C)[C@@H](C(=O)Cn4cc(C#N)cn4)CC[C@@H]32)C1 [Forms A and K]
Final Form after slurry conversion ([4]; Ethyl acetate, 50° C.): Form C

C[C@@]1(O)CC[C@H]2[C@H](CC[C@@H]3[C@@H]2CC[C@]2(C)[C@@H](C(=O)Cn4cc(C#N)cn4)CC[C@@H]32)C1 [Forms A, C and K]
Final Form after slurry conversion ([4]; MBTE, 50° C.): Form C | Final Form after slurry conversion ([4]; MBTE, RT): Form C | Final Form after slurry conversion ([4]; n-Butanol, 50° C.): Form C | Final Form after slurry conversion ([4]; n-Butanol, RT): Form C
